Measurements published in patent US20100136541A1, “IDENTIFICATION AND VERIFICATION OF METHYLATION MARKER SEQUENCES” (Siemens Healthcare Diagnostics Inc., priority 2003, published 2010).

Key:
Assay type in all cases: cell-based, human
CA4 = assay: Affymetrix expression profiling of treated and untreated cell lines (restoration of gene expression); conditions: cell line LS174T, treated vs untreated
Experimental: (§1) Twenty well characterized, microdissected samples of colorectal cancer tissue were obtained from consenting patients. A second set of twenty, microdissected samples of normal adjacent colon tissue were also obtained. Total RNA was extracted from these samples using RNeasy kits (QIAGEN, Valencia, Calif.) according to the manufacturer's instructions. Expression profiling was performed using the GeneChip expression arrays from Affymetrix (Santa Clara, Calif.). Reverse transcription, second-strand synthesis, and probe generation was accomplished by standard Affymetrix protocols. The Human Genome U133A GeneChip, which contains more than 15,000 substantiated human genes, was hybridized, washed, and scanned according to Affymetrix protocols. Changes in cellular mRNA levels in the cancerous tissues were compared with mRNA levels in the normal colon tissues. GeneSpring v4.2 (Silicon Genetics, Redwood City, Calif.) was used to normalize and scale results and compare gene expression levels in the cancer tissue relative to that in the normal tissue.
(§2) Further support for the clinical importance of these sites comes from the changes seen in gene expression of the genes after treatment of cell lines with 5-aza-2′-deoxyctyidine. These values were obtained from Affymetrix expression profiling of treated and untreated cell lines using the procedure described above.

GPX3 = assay: as above; conditions: cell line LS174T, treated vs untreated
Experimental: as §1, §2

SCNN1B = assay: as above; conditions: cell line LS123, treated vs untreated
Experimental: as §1, §2

GPX3 CpG sites = assay: Bisulfite sequencing of CpG sites, cell lines treated vs. untreated; parameters: unit not given here; conditions: cell line pool
Experimental: Samples: Paired tumor and adjacent normal tissues from twelve colorectal cancer patients were collected under institutional review board (IRB) approval with patient consent. Tissues were flash frozen in LN2 and stored at −80° C. prior to DNA extraction. All tissues were blinded. Cell lines: A panel of five colorectal cancer cell lines was used. Cells were grown to ˜50% confluence in the appropriate culture medium prior to treatment with 5-aza-2′-deoxycytidine. Optimal concentrations and incubation times (Table 4) were determined by assaying for reduction of p16 promoter methylation using MSP. Cells were harvested, pelleted by centrifugation, and washed twice in Hanks buffered saline solution. Cell pellets were stored at −80° C. Control cells were maintained simultaneously without 5-aza-2′-deoxycytidine treatment. DNA extraction: DNA was purified from tissues and cell lines using the QIAGEN DNeasy® Tissue Kit. Approximately 25-35 mg of each tissue was pulverized under liquid nitrogen before extraction. Elution volume for tissues was 2004. A final volume of […] of cell line DNA was extracted from 15 to 254 of each packed cell pellet (between 10^6-10^7 cells). Purified DNA was stored at −20° C. Bisulfite modification: Modification was performed according to the Frommer method (See Frommer M, et al., PNAS, 89: 1827-1831 (1992).) One μg genomic DNA was diluted into 50 μl with distilled H2O, 5.5 μl of 2M NaOH was added, and the mixture incubated at 37° C. for 10 minutes (to create single stranded DNA). Thirty μl of freshly prepared 10 mM hydroquinone (Sigma) was added to each tube. Five hundred twenty μl of freshly prepared 3M sodium bisulfite (Sigma S-8890), pH 5.0 was then added. Reagents were thoroughly mixed and then covered with mineral oil and incubated at 50° C. for 16 hours. After removing the oil, 1 ml of Wizard DNA Cleanup Resin (Promega A7280) was added to each tube prior to applying the mixture to miniprep column in the DNA Wizard Cleanup kit. The column was washed with 2 ml of 80% isopropanol, and eluted with 50 μl of heated water (60-70° C.). 5.5 μl of 3 M NaOH to was added to each tube, and incubated at room temperature for 5 minutes. Then 1 μl glycogen was added as carrier, 33 μl of 10 M NH4Ac, and 3 volumes of ethanol for DNA precipitation. The pellet was spun down and washed with 70% ethanol, dried and resuspended in 20 μl water. In some instances, the EZ DNA Methylation Kit (Zymo Research) which uses a simplified version of the Frommer method was used. In these cases, 1 μg of genomic DNA was denatured in 0.3M NaOH for 15 minutes at 37° C. followed by incubation at 50° C. for 16 hours in 0.5 mM hydroquinone and a saturated solution of sodium bisulfite at pH 5. Modified DNA was bound to the Zymo column membrane, then desulfonated with 0.3M NaOH for 15 minutes at room temperature. DNA was washed and resuspended with 50 μL 10 mM Tris-HCl-0.1 mM EDTA, pH 7.5 and stored at −20° C. The bisulfite reaction results in conversion of an unmethylated cytosine to uracil. Methylated cytosine remains unchanged after the bisulfite reaction. The resulting bisulfite modified DNA is single stranded. PCR amplification for sequencing: Primers were designed to amplify both methylated and unmethylated fragments of DNA (Table 5). Five μL of modified DNA ( 1/10 of modification reaction) was amplified first in a 254, reaction volume containing 10 mM Tris-HCl pH8.3, 50 mM KCl, 1.5 mM to 2 mM MgCl2, (Applied Biosystems), 0.25 mM each dNTP, 0.5 unit AmpliTaq (Applied Biosystems), and sequencing primers (each at 200 nM). Cycling conditions were 10 minutes at 95° C., 40 cycles of 30 seconds at 95° C., 30 seconds at 54-62° C., 30 seconds at 72° C., subsequently followed by extension for 5 minutes at 72° C.
Reaction products were purified either by the shrimp-alkaline phosphatase-Exol standard method or on the Qiagen Qiaquick PCR clean-up column and eluted in 30 μL 10 mM Tris-HCl, pH8.5. […]

## Nc1ncn([C@H]2C[C@H](O)[C@@H](CO)O2)c(=O)n1 [5-aza-2′-deoxycytidine]
CA4
  restoration of gene expression of CA4 after treatment: 2.8 fold
GPX3
  restoration of gene expression of GPX3 after treatment: 8.5 fold
SCNN1B
  restoration of gene expression of SCNN1B after treatment: 4.1 fold
GPX3 CpG sites
  Sequencing results for GPX3, CpG site #25: 70
  Sequencing results for GPX3, CpG site #27: 100
  Sequencing results for GPX3, CpG site #31: 67
  Sequencing results for GPX3, CpG site #49: 70
  Sequencing results for GPX3, CpG site #56: 98
  Sequencing results for GPX3, CpG site #75: 72
  Sequencing results for GPX3, CpG site #84: 77
  Sequencing results for GPX3, CpG site #86: 74
  Sequencing results for GPX3, CpG site #101: 84
  Sequencing results for GPX3, CpG site #126: 75
  Sequencing results for GPX3, CpG site #129: 80
  Sequencing results for GPX3, CpG site #142: 97
  Sequencing results for GPX3, CpG site #146: 80
  Sequencing results for GPX3, CpG site #167: 89
